Values joined by “and” are separate entries in the source; they are usually repeats but may differ in a detail not shown here. Identical values can stand only once.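 Test compounds were applied to cells in 96-well plates for 48 hours at 5 doses. Abbreviation: GI50, concentration required for 50% inhibition of growth. TGI is the concentration that stops growth completely.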
How the values were obtained:
Experiment in all cases: growth of human tumour cells (NCI), 48 h
T-47D breast = tested on: T-47D breast
NCI-H23 lung = tested on: NCI-H23 lung
SNB-75 CNS = tested on: SNB-75 CNS
HCC-2998 colon = tested on: HCC-2998 colon
HOP-62 NSCLC = tested on: HOP-62 NSCLC
LOX IMVI melanoma = tested on: LOX IMVI melanoma
EKVX NSCLC = tested on: EKVX NSCLC
U251 CNS = tested on: U251 CNS
OVCAR-5 ovarian = tested on: OVCAR-5 ovarian
TK-10 renal = tested on: TK-10 renal
MOLT-4 leukemia = tested on: MOLT-4 leukemia

Row | Structure (SMILES) | TGI (T-47D breast) [µM] | TGI (NCI-H23 lung) | TGI (SNB-75 CNS) | TGI (HCC-2998 colon) | TGI (HOP-62 NSCLC) | TGI (LOX IMVI melanoma) | TGI (EKVX NSCLC) | TGI (U251 CNS) [µM] | TGI (OVCAR-5 ovarian) | TGI (TK-10 renal) [µM] | TGI (MOLT-4 leukemia) | GI50 (MOLT-4 leukemia) [µM] | GI50 (NCI-H23 lung) [µM] | GI50 (SNB-75 CNS) [µM] | GI50 (HCC-2998 colon) [µM] | GI50 (HOP-62 NSCLC) [µM] | GI50 (LOX IMVI melanoma) [µM] | GI50 (EKVX NSCLC) [µM] | GI50 (U251 CNS) [µM] | GI50 (OVCAR-5 ovarian) [µM]
1 | O=C(O)Cc1ccc(Oc2nc3ccccc3nc2C(=O)O)cc1 | > 100 | > 100 µM | > 100 µM | > 100 µM | > 100 µM | > 100 µM | > 100 µM | > 100 | > 100 µM | > 100 | – | – | – | – | – | – | – | – | – | –
2 | CC(C)(C)c1cc2c(O)c(c1)Cc1cc(C(C#N)(Cc3ccc4ccccc4c3)Cc3ccc4ccccc4c3)cc(c1O)Cc1cc(C(C)(C)C)cc(c1O)Cc1cc(C(C#N)(Cc3ccc4ccccc4c3)Cc3ccc4ccccc4c3)cc(c1O)C2 | > 100 | > 100 µM | > 100 µM | > 100 µM | > 100 µM | > 100 µM | > 100 µM | > 100 | > 100 µM | > 100 | > 100 µM | – | – | – | – | – | – | – | – | –
3 | Cc1cc(N=Nc2c(O)ccc3ccccc23)ccc1N=Nc1cccc([N+](C)(C)C)c1 | > 100 | 52 µM | 26.3 µM | > 100 µM | 43.2 µM | > 40.3 µM | 62.1 µM | 14.1 | 60.8 µM | 49.5 | > 100 µM | – | – | – | – | – | – | – | – | –
4 | CC1=CCC2C3(C)CCC2(C(C)C)C1C3 (stereo not given) (tested in a mixture with another compound) | > 100 | > 100 µM | 77.5 µM | 49.5 µM | 57.5 µM | 87.8 µM | 50.9 µM | 50.8 | 37.6 µM | 78.7 | 75.3 µM | – | – | – | – | – | – | – | – | –
5 | CCN(CC)CCNC(=O)c1ccc(I)cc1 | > 100 | > 100 µM | > 100 µM | > 100 µM | > 100 µM | > 100 µM | > 100 µM | > 100 | > 100 µM | > 100 | > 100 µM | – | – | – | – | – | – | – | – | –
6 | Cn1c(-c2cccs2)cc(-c2cccs2)c1-c1ccco1 | 12 | > 25 µM | > 100 µM | > 100 µM | > 100 µM | 62.9 µM | > 100 µM | > 100 | > 100 µM | > 100 | > 100 µM | – | – | – | – | – | – | – | – | –
7 | O=C(Nc1c(C(F)(F)F)cc(-c2ccccc2)[nH]c1=O)N1CCOCC1 | > 100 | > 100 µM | > 100 µM | > 100 µM | > 100 µM | > 100 µM | > 100 µM | > 100 | > 100 µM | > 100 | > 100 µM | – | – | – | – | – | – | – | – | –
8 | Cc1ccc(S(=O)(=O)N2C[C@](O)(c3ccccc3)[C@H]2C)cc1 | > 100 | > 100 µM | > 100 µM | – | > 100 µM | > 100 µM | > 100 µM | > 100 | > 100 µM | > 100 | > 100 µM | – | – | – | – | – | – | – | – | –
9 | Cc1ccc2c(n1)C(=O)C=CC2=O | 4.74 | 30.6 µM | 38.2 µM | 33.5 µM | > 58.3 µM | 12.6 µM | 15 µM | 40.6 | 34.4 µM | 6.21 | > 24 µM | – | – | – | – | – | – | – | – | –
10 | N#CC(C#N)=C(N)/C(C#N)=C/c1ccc2ccccc2n1 | > 100 | > 100 µM | > 100 µM | > 100 µM | 33 µM | 46 µM | > 100 µM | – | > 100 µM | > 100 | 97.9 µM | – | – | – | – | – | – | – | – | –
11 | [N-]=[N+]=Nc1c(C=O)c(=O)n(-c2ccccc2)c2ccccc12 | 61.4 | 38 µM | 94.2 µM | 40.1 µM | > 100 µM | 31.3 µM | – | > 100 | > 100 µM | 39.1 | 12.7 µM | – | – | – | – | – | – | – | – | –
12 | O=C1O[C@H]2[C@H](O)[C@@H](OC(=O)c3cc(O)c(O)c4c3[C@@H]3C1=CC(=O)C(O)(O)C3(O)O4)[C@H](OC(=O)c1cc(O)c(O)c(O)c1)O[C@@H]2CO (stereo not given in full) | > 100 | > 100 µM | > 100 µM | > 100 µM | > 100 µM | > 100 µM | > 100 µM | > 100 | > 100 µM | – | > 100 µM | – | – | – | – | – | – | – | – | –
13 | COC1C(O)C(C)OC(OC2C(Oc3cccc4c(O)c5c(=O)oc6ccc(C)c7c(=O)oc(c34)c5c67)OC(C)C(O)C2O)C1O (stereo not given) | 7.66 | 9.28 µM and 4.6 µM | 12.6 µM and 7.14 µM | 4.56 µM and 7.81 µM | 6.38 µM and 5.29 µM | 7.55 µM and 10.5 µM | 15.2 µM and 4.85 µM | 11.9 | 30.8 µM and 15.6 µM | 21 | 14.9 µM and 2.23 µM | 0.647 | 1.93 | 3.15 | 1.1 | 1.01 | 0.688 | 3.81 | 0.543 | 6.91
14 | CCOC(=O)Cc1csc2[n+]1C(=O)/C(=C/c1cccc(OC)c1O)S2 | > 100 | > 100 µM | > 100 µM | > 100 µM | > 100 µM | > 100 µM | > 100 µM | > 100 | > 100 µM | > 100 | > 100 µM | – | – | – | – | – | – | – | – | –
15 | O=C(Nc1cc2c(=O)oc3ccccc3c2oc1=O)c1cccnc1 | > 100 | > 100 µM | > 100 µM | > 100 µM | – | > 100 µM | > 100 µM | > 100 | > 100 µM | > 100 | > 100 µM | – | – | – | – | – | – | – | – | –
16 | COC(=O)C1c2c(c3ccccc3n2C(=O)OC)CCN2CCC1C(S(=O)(=O)c1ccccc1)C2=O (stereo not given) | > 100 | > 100 µM | > 100 µM | – | > 100 µM | > 100 µM | > 100 µM | > 100 | > 100 µM | > 100 | > 100 µM | – | – | – | – | – | – | – | – | –
17 | CCN(CC)CCCn1c(=O)c2ccccc2n2c3c(=O)n(C)c(=O)n(C)c3nc12 | 49.8 | 21.2 µM | 18.6 µM | 22 µM | 15.1 µM | 15.4 µM | 36.6 µM | 23.3 | 32.9 µM | 38.9 | 8.92 µM | – | – | – | – | – | – | – | – | –
18 | Cc1cc(-c2nc3ccccc3s2)ccc1N | > 85.9 | > 80.8 µM | > 88.8 µM | > 93 µM | > 100 µM | > 78.5 µM | > 95.3 µM | > 88.5 | 70.6 µM | > 100 | 82.2 µM | – | – | – | – | – | – | – | – | –
